Reference: ChEMBL document CHEMBL2384987, “Metabolites from Microcystis aeruginosa bloom material collected at a water reservoir near Kibbutz Hafetz Haim, Israel” (J Nat Prod, 2013)
Activity calls are given as the source filed them. The rule behind the calls is not given here. *1 amine or outer side, *2 acyl side, *3 side chain or, on linkers, in order; H or OH if unused. Where a SMILES comes first, the peptide text is derived from it. Bridges are numbered along the chain shown (N, C = ends). [ ]: non-standard residue; d: D form. The star is where a group is joined. Propanoyl(2R-OH,3-(4-HOPh)) = O=C([C@H](O)Cc1ccc(O)cc1)*; X1 = CO[C@@H]1CC[C@H](C(=O)[*:2])N1[*:1]; NMeF = CN[C@@H](Cc1ccccc1)C(=O)O

Key:
[1] = biological target: Prothrombin (Homo sapiens) (UniProt P00734); experiment: Inhibition of thrombin (unknown origin) at 45.5 uM
[2] = biological target: T1, Trypsin (Homo sapiens, UniProt P07477+P07478+P35030); experiment: Inhibition of trypsin (unknown origin) at 45.5 uM; type: protein assay
[3] = Inhibition of elastase (unknown origin); set-up: species or system Homo sapiens
[4] = Inhibition of chymotrypsin (unknown origin); set-up: species or system Homo sapiens
[5] = biological target: T1, Trypsin; experiment: Inhibition of trypsin (unknown origin); type: protein assay

| inhibition [1] | inhibition [2] | IC50 [3] [µM] | IC50 [4] [µM] | IC50 [5] [µM] | SMILES |
| --- | --- | --- | --- | --- | --- |
| inactive | inactive | 55.5 | 48.5 |  | CC(C)C[C@@H]1NC(=O)[C@@H](NC(=O)[C@H](CC(N)=O)NC(=O)[C@H](O)Cc2ccc(O)cc2)[C@@H](C)OC(=O)[C@H](C(C)C)NC(=O)[C@H](Cc2ccccc2)N(C)C(=O)[C@H](CC(C)C)N2C=CC[C@H](NC1=O)C2=O |
| inactive | inactive | 17.6 | 4.3 |  | CC(C)C[C@@H]1NC(=O)[C@@H](NC(=O)[C@H](CC(N)=O)NC(=O)[C@H](O)Cc2ccc(O)cc2)[C@@H](C)OC(=O)[C@H](C(C)C)NC(=O)[C@H](Cc2ccccc2)N(C)C(=O)[C@H](CC(C)C)N2C(=O)[C@H](CC[C@H]2O)NC1=O |
| inactive | inactive | 16.9 | 45.9 |  | CO[C@@H]1CC[C@@H]2C(=O)N[C@@H](CC(C)C)C(=O)N(C)[C@@H](Cc3ccccc3)C(=O)N[C@@H](C(C)C)C(=O)O[C@H](C)[C@H](NC(=O)[C@H](CC(N)=O)NC(=O)[C@H](O)Cc3ccc(O)cc3)C(=O)N[C@@H](CC(C)C)C(=O)N21 ({Propanoyl(2R-OH,3-(4-HOPh))}-NTL[X1]L[NMeF]V; ester 2-C) |
|  |  |  |  | 45.5 | CC(=O)O[C@@H]1CC[C@@H]2C[C@H](C(N)=O)N(C(=O)[C@@H](Cc3ccc(O)cc3)NC(=O)[C@@H](O)Cc3ccc(O)cc3)[C@@H]2C1 |
